Each block holds one compound with its values, some of them ahead of it.
Tests used:
[1] = biological target: Glutamate NMDA receptor; assay: In vitro inhibition of [3H]glycine at NMDA receptor; format: protein-complex assay
[2] = tested on: Mus musculus; assay: In vivo antagonist activity against seizures elicited by audiogenic, administered perorally in mice; format: functional; settings: po
[3] = tested on: Mus musculus; assay: In vivo antagonist activity against seizures elicited by audiogenic, administered intra peritoneally in mice; format: functional
[4] = biological target: T1, Glutamate receptor ionotropic, NMDA 2C (Rattus norvegicus, UniProt Q00961); assay: Compound was evaluated for in vitro inhibition of cortical slice release at NMDA receptor.
[5] = biological target: T1, Glutamate receptor ionotropic, NMDA 2C; assay: Compound was evaluated for in vitro inhibition of [3H]-GABA release at NMDA receptor.
[6] = biological target: T2, Glutamate receptor ionotropic, NMDA 1 (Rattus norvegicus, UniProt P35439); assay: Compound was evaluated for in vitro inhibition of [3H]L-689,560 at NMDA receptor.
[7] = tested on: Gerbillinae; assay: Compound was evaluated for neuroprotection, gerbil in vivo through ip route; format: functional
[8] = tested on: Mus musculus; assay: Antagonist activity in PCP hyperactivity seizure model in vivo through subcutaneous route; format: functional; settings: sc
[9] = tested on: Mus musculus; assay: In vivo antagonist activity against seizures elicited by NMDLA in mice administered intraperitoneally; format: functional; settings: ip
[10] = tested on: Mus musculus; assay: Antagonist activity in amphetamine hyperactivity seizure model in vivo through intraperitoneal route; format: functional; settings: ip
[11] = biological target: T2, Glutamate receptor ionotropic, NMDA 1; assay: Compound was evaluated for in vitro inhibition of cortical neuron at NMDA receptor
[12] = biological target: Glutamate NMDA receptor; assay: Compound was evaluated for in vitro inhibition of [3H]TCP at NMDA receptor; format: protein-complex assay
[13] = tested on: Mus musculus; assay: Antagonist activity in plus-maze in vivo through intraperitoneal route; format: functional; settings: ip
[14] = tested on: Mus musculus; assay: In vivo antagonist activity against seizures elicited by NMDA in mice administered intraperitoneally; format: functional; settings: ip
[15] = tested on: Mus musculus; assay: Antagonist activity in forced swim model, in vivo through intraperitoneal route; format: functional; settings: ip
[16] = tested on: Mus musculus; assay: Separation-induced vocalization in vivo through ip route; format: functional
[17] = tested on: Mus musculus; assay: Antagonist activity in audiogenic seizure model in vivo through icv route; format: functional
[18] = tested on: Mus musculus; assay: In vivo antagonist activity against seizures elicited by audiogenic administered intra peritoneally in mice; format: functional
[19] = biological target: Glutamate NMDA receptor; assay: Compound was evaluated for in vitro inhibition of [3H]MK-801 at NMDA receptor; format: protein-complex assay
[20] = biological target: T2, Glutamate receptor ionotropic, NMDA 1; assay: Compound was evaluated for in vitro inhibition of oocytes at NMDA receptor.; format: cell-based, frog; settings: oocyte
[21] = biological target: Glutamate NMDA receptor; assay: Compound was evaluated for in vitro inhibition of [3H]-MK-801 at NMDA receptor.; format: protein-complex assay
[22] = tested on: Mus musculus; assay: Compound was evaluated for passive avoidance in vivo through intraperitoneal route; format: functional; settings: ip
[23] = tested on: Mus musculus; assay: Compound was evaluated for elevation of cGMP in vivo through subcutaneous route; format: functional; settings: sc
[24] = tested on: Mus musculus; assay: Compound was evaluated for nociception in electroshock mice model in vivo through ip route; format: functional

T1 sequence (Q00961 whole entry): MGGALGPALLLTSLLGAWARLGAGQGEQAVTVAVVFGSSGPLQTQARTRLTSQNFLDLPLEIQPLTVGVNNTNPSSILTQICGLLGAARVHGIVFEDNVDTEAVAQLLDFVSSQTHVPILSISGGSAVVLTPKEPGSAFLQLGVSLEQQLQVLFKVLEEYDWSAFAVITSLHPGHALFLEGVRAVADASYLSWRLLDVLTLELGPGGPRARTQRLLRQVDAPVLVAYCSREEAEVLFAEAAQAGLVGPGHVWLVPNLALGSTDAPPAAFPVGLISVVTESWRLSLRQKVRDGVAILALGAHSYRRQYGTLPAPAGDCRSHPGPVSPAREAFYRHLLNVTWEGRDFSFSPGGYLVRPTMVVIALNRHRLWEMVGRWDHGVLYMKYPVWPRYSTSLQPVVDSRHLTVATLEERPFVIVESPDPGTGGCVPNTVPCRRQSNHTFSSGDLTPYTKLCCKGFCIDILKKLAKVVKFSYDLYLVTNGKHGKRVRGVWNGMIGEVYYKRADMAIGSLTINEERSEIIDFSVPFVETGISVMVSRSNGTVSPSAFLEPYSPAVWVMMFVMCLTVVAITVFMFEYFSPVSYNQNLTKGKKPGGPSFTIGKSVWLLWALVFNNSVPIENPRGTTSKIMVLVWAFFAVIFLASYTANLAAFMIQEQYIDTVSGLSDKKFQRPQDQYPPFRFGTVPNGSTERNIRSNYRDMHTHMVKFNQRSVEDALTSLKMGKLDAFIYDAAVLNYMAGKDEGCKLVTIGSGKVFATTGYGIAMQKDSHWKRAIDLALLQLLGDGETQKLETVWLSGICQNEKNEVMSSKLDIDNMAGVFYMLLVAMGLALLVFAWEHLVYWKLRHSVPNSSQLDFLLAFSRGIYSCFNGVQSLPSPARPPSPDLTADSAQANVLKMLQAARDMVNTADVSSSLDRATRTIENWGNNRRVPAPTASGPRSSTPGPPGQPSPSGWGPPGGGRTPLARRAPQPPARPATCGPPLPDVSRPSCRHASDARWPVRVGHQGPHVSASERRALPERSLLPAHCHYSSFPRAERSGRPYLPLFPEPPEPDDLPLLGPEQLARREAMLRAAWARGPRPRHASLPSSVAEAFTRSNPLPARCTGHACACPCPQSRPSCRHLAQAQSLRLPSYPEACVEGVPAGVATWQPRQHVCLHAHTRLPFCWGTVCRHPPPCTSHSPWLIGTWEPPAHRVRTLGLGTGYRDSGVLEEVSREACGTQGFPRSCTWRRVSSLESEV

SMILES: O=[N+]([O-])c1cc([N+](=O)[O-])c2nc(O)c(O)nc2c1
IC50 [1]: 1000 nM | IC50 [4]: 400 nM | EC50 [5]: 400 nM | IC50 [6]: 170 nM

SMILES: Oc1nc2cc(Cl)c(Cl)cc2n2ccnc12
IC50 [1]: 6000 nM

SMILES: N[C@@H]1CCN(O)C1=O
IC50 [1]: 12500 nM | ED50 [8]: 30 mg/kg | ED50 [9]: 890 mg/kg | ED50 [3]: 53 mg/kg | ED50 [10]: 30 mg/kg | Ki [11]: 2500 nM

SMILES: NCC(=O)Nn1ccc2ccccc21
IC50 [1]: 36000 nM | EC50 [12]: 3600 nM | IC50 [12]: 780000 nM

SMILES: O=C1C2CC(CCN2)N1O (stereo unspecified)
IC50 [1]: 19000 nM | Ki [11]: 3500 nM

SMILES: COC(=O)C1(N)CC1
IC50 [1]: > 40000 nM | ED50 [13]: 200 mg/kg | ED50 [14]: 46 mg/kg | ED50 [15]: 100 mg/kg

SMILES: O=C(O)c1cc(O)c2c(Cl)cc(Cl)cc2n1
ED50 [16]: 67 mg/kg | ED50 [17]: 7.5 nM | ED50 [18]: > 250 mg/kg

SMILES: N[C@@H](/C=C/CCO)C(=O)O
IC50 [1]: 750 nM | EC50 [19]: 930 nM

SMILES: N#Cc1cc2c(cc1[N+](=O)[O-])=NC(=O)C(=O)N=2
IC50 [1]: 4800 nM

SMILES: NC1(C(=O)O)CCC1 [1-AMINOCYCLOBUTANE CARBOXYLIC ACID]
IC50 [1]: 19000 nM | IC50 [20]: 18500 nM

SMILES: N[C@@H]1CONC1=O [CYCLOSERINE]
ED50 [22]: 3 mg/kg | ED50 [23]: 1.25 mg/kg

SMILES: O=c1[nH]c2cc([N+](=O)[O-])c([N+](=O)[O-])cc2[nH]c1=O [DNQX]
IC50 [1]: 1300 nM

SMILES: O=c1[nH]c2cc(Cl)c(Cl)c([N+](=O)[O-])c2[nH]c1=O [LICOSTINEL]
ED50 [24]: 5 mg/kg

SMILES: O=C(O)c1cc(=O)c2ccccc2[nH]1 [TRANSTORINE]
ED50 [17]: 20 nM | ED50 [18]: > 250 mg/kg

Continued, in another order:

IC50 [1]: 1.4 nM
SMILES: O=c1[nH]c2cc(Cl)ccc2c(O)c1-c1cccc(Oc2ccsc2)c1
ED50 [2]: 0.9 mg/kg | ED50 [3]: 0.8 mg/kg

IC50 [1]: 410 nM
SMILES: O=c1[nH][nH]c(=O)c2c1[nH]c1cc(Cl)cc(Cl)c12
MED50 [7]: 10 mg/kg

IC50 [1]: 2.6 nM
SMILES: O=C(C[C@@H]1CCc2cc(Br)cc3[nH]c(=O)c(=O)n1c23)Nc1ccccc1

IC50 [1]: 31 nM
SMILES: O=c1cc(O)c2c(Cl)cc(Cl)cc2[nH]c1=O

IC50 [1]: 8 nM
SMILES: O=C(O)C1Nc2cc(Cl)cc(Cl)c2S(=O)(=O)N1Cc1cccc(Br)c1 (stereo unspecified)

IC50 [1]: 110 nM
SMILES: O=C(O)Cn1c(=O)c(=O)[nH]c2cc(Cl)c(Cl)cc21

IC50 [1]: 40 nM | EC50 [21]: 140 nM
SMILES: NC1(C(=O)O)CC1 [1-Aminocyclopropane carboxylic acid]

IC50 [1]: 460 nM
SMILES: O=C(O)c1nc2cc(Cl)c(Cl)cc2nc1O [6,7-DICHLORO-3-HYDROXY-2-QUINOXALINECARBOXYLIC ACID]
